In PubChem BioAssay (NCI):
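Values below derive from 48-hour exposures of cells grown in 96-well plates, with endpoints linearly interpolated between the two concentrations bracketing the appropriate inhibition level. TGI denotes the concentration required for complete inhibition of growth.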 Where a SMILES comes first, the peptide text is derived from it. The star is where a group is joined. Boc = CC(C)(C)OC(=O)*

Legend:
Experiment in all cases: inhibition of tumour cell growth, NCI panel, 48 h
NCI-H460 lung = system: NCI-H460 lung
SR leukemia = system: SR leukemia
M14 melanoma = system: M14 melanoma
NCI-H226 lung = system: NCI-H226 lung
HL-60(TB) leukemia = system: HL-60(TB) leukemia

| Structure (SMILES) | TGI (NCI-H460 lung) [µM] | TGI (SR leukemia) [µM] | TGI (M14 melanoma) [µM] | TGI (NCI-H226 lung) [µM] | TGI (HL-60(TB) leukemia) [µM] |
| --- | --- | --- | --- | --- | --- |
| Cc1ccc(C)n1-n1c(Cc2ccc(Cl)cc2)n[nH]c1=O | > 100 | > 100 | > 100 | > 100 |  |
| CC(=O)OC12c3ccccc3C(c3ccccc31)C1C(=O)N(Nc3ccccc3)C(=O)C12 (stereo unspecified) | > 100 | > 100 | > 100 | > 100 | > 100 |
| c1ccc(C2C3=C(c4ccccc4CC3)N3c4cc5nc6ccccc6nc5cc4NC34CCCCC24)cc1 (stereo unspecified) | > 10 | 2.05 | > 10 | > 10 | > 6.29 |
| CCOC(=O)C1C(c2ccccc2)C2(C#N)C(=N)OC1(C)C2(C#N)C#N (stereo unspecified) |  |  | > 100 | > 100 | 55.7 |
| CCN(CC)CCOc1ccc(N2Cc3cc(OC)c(OC)cc3C2=O)cc1 | > 100 | > 100 | > 100 | > 100 | > 100 |
| C=CC[C@H](O)[C@@](NC(=O)OCc1ccccc1)(Sc1ccc(C)cc1)C(F)(F)F | > 100 | 60.9 | 74.4 | 35.9 | 28.9 |
| CCCc1c(O)c2ccccc2[nH]c1=O | > 100 | > 100 |  | > 100 | > 100 |
| CC1NC(=O)c2c(-c3ccccc3)nn(-c3ccccc3)c2NC1=O (stereo unspecified) | > 100 | > 100 | > 100 | > 100 |  |
| CC(=O)OCc1cc(OC(C)=O)c2cc3c(OC(C)=O)cccc3c(OC(C)=O)c2c1 | 23.8 | > 100 | 55.7 | 47.3 | 47.5 |
| CC1(C)CC(=O)c2c(nc3c(ccc4ccccc43)c2-c2ccc(NC(=O)CCCCCCCCC(=O)Nc3ccc(-c4c5c(nc6c4ccc4ccccc46)CC(C)(C)CC5=O)cc3)cc2)C1 | > 100 | > 100 | > 100 | > 100 | > 100 |
| Brc1ccc(N=C/C=C(\Nc2ccc(Br)cc2)C23CC4CC(CC(C4)C2)C3)cc1 | > 68.8 |  | 71 | > 100 | 23.3 |
| N#Cc1nc(/C=C/c2cccs2)oc1N |  | 74 | > 100 |  | > 100 |
| N[C@@H]1c2c(Br)sc(Br)c2C(=O)[C@H]1Br | > 100 | > 64.2 | 50.9 | > 58.4 | > 24.8 |
| C/C(CC(O)(C(F)(F)Cl)C(F)(F)Cl)=N\Nc1ccccc1 | > 100 | > 100 | > 100 | 89.1 | 62.5 |
| Cc1ccc(S(=O)(=O)NN=C2C(C)CC(C(C)(C)C)CC2C)cc1 (stereo unspecified) | 34.3 | 62.2 | 26.9 | 34.5 | 52.7 |
| COc1cc2c(OC)c3cc(C)oc(=O)c3c(O)c2c(O)c1-c1c(OC)cc2c(OC)c3cc(C)oc(=O)c3c(O)c2c1O | 42.5 |  | 35.4 | 38.2 | 33.9 |
| C/C(=N/NC(=S)Nc1ccccc1C)c1ccccn1 | 7.61 | > 4.64 | 5.7 | 2.47 |  |
| O=C(CC(O)(C(F)(F)Cl)C(F)(F)Cl)CC(O)(C(F)(F)Cl)C(F)(F)Cl | > 10 | > 10 | > 10 | 4.66 | 4.94 |
| Cc1cc(C)c2c(=O)cc(-c3ccccc3)[nH]c2c1 | 31.2 | > 100 | > 82.4 | 48.9 | 4.71 |
| Oc1c(Nc2ccccc2)cc2c3c1N=NC=3CCN=2 | > 100 | > 100 | > 100 |  | 53.2 |
| O=c1cc(CN2CCCCC2)[nH]c2c1ccc1nc(CN3CCCCC3)cc(=O)n12 | > 100 | > 100 | > 100 | > 100 | > 100 |
| CNC(=O)CNC(=O)C(NC(=O)CNC(=O)C1CCCN1C(=O)C(C)NC(=O)C(NC(=O)OC(C)(C)C)C(C)C)C(C)C (stereo unspecified) (Boc-VAPGVG-NHMe; configuration not given here) | > 100 | > 100 | > 100 |  | > 100 |
| CCCCCCCCOP(=O)(O)OP(=O)(O)OCC1OC(n2ccc(N)nc2=O)C(O)C1O (stereo unspecified) | > 100 |  | > 100 | > 100 | > 100 |

| Structure (SMILES) | TGI (NCI-H460 lung) [µM] | TGI (SR leukemia) [µM] | TGI (M14 melanoma) [µM] | TGI (NCI-H226 lung) [µM] | TGI (HL-60(TB) leukemia) [µM] |
| --- | --- | --- | --- | --- | --- |
| COc1ccc(-c2c(C(C)=O)c(C)n(C3OC(COC(C)=O)C(OC(C)=O)C(OC(C)=O)C3OC(C)=O)c(=S)c2C#N)cc1 (stereo unspecified) | > 100 | > 100 | > 100 | > 100 | > 100 |
| COc1cc(C)cc(C(=O)OCc2ccccc2)c1C1=C(Cl)C(=O)C(Cl)=CC1=O | > 10 | > 7.85 | > 10 | > 10 | 2.55 |
| CC1(C)OC[C@@H]([C@H](C=O)OCc2ccccc2)O1 |  | > 100 | > 100 | > 100 |  |
| O=C1NC(=S)NC1C(Cc1ccccc1)c1ccco1 (stereo unspecified) | > 100 | > 100 | > 100 | > 100 | > 100 |
| CCOC(=O)C(=NN(C)c1ncccc1N)C(=O)OCC | > 100 | > 100 | > 100 | 47.6 | 84.2 |
| CC(Cc1ccc(O)cn1)(NC(=O)c1ccccc1)C(=O)O (stereo unspecified) | > 100 | > 100 | > 100 | > 100 | > 100 |
| CCOC(=O)C(=O)N=Nc1c(O)[nH]c2ccccc12 | > 100 | > 100 | > 100 | > 100 |  |
| CC(C)C1=CC23CCC4C(C)(C(=O)O)CCCC4(C)C2CC1C1C(=O)N(c2ccc(N4C(=O)C5C6CC7C8(C)CCCC(C)(C(=O)O)C8CCC7(C=C6C(C)C)C5C4=O)cc2)C(=O)C13 (stereo unspecified) |  | 15.9 | 15.8 | 13.7 | 17.2 |
| Cc1ccc([N+](=O)[O-])cc1S(=O)(=O)Nc1ccc(C(=O)/C=C/c2ccccc2)cc1 | 37.8 | 54.7 | 43.1 | 98.4 | 65.1 |
| CC[C@H](C)[C@H](NC(=O)[C@H](Cc1ccc(O)cc1)NCC(F)(F)F)C(=O)OC(C)(C)C | 14.1 | 20.8 | 15.1 | 18.8 |  |
| C=CC(Br)(CBr)CCC1OC1(C)C (stereo unspecified) | 28.3 | 86.8 | 29 | 42.6 | > 100 |
| CN1CCC2(CC1)C(=O)N(NC(N)=O)C(=O)C2c1ccccc1 (stereo unspecified) | > 100 |  | > 100 | > 100 | > 100 |
| CC1(C)CCCCC1/C=C/C(CC(O)(C(F)(F)F)C(F)(F)F)=N\Nc1ccc([N+](=O)[O-])cc1[N+](=O)[O-] (stereo unspecified) | 6.73 | > 100 | 17.2 | 2.81 | > 100 |
| CCN1CCC(O)(/C=C/c2cccc(C)c2)C(C(=O)/C=C/c2cccc(C)c2)C1 (stereo unspecified) | 4.64 | > 100 | 7.47 | 5.89 | > 100 |
| CC(=O)OC12c3ccccc3C(c3ccccc31)C1C(=O)N(c3ccccc3O)C(=O)C12 (stereo unspecified) | > 100 | > 100 | > 100 | > 100 | > 100 |
| Brc1ccc2[nH]cc([C@@H]3CN[C@@H](c4c[nH]c5ccc(Br)cc45)CN3)c2c1 | 24.4 | 4.17 | 15 | 31.3 | 4.24 |
| NC(=S)Nc1c(S(N)(=O)=O)cc(S(N)(=O)=O)c(Cl)c1Cl |  |  | > 100 | > 100 | > 100 |
| CO[C@@H]1C[C@H]2[C@@H]3CC[C@H]([C@@H](C)COC(C)=O)[C@@]3(C)CC[C@@H]2[C@@]2(C)CC[C@H]3C[C@]312 | 23.4 | 26.5 | 38 | 34.9 | 19.1 |
| O=c1[nH]ncc2[nH]c(-c3ccccc3)cc12 | > 100 | > 100 | > 100 | > 100 | > 100 |
| O=C(OC1C#CCSCC#C/C=C\1)c1cnc2ccccc2n1 (stereo unspecified) | 33.7 | 53.1 | > 100 | > 100 | > 100 |
| CC(=O)OCC(OC(C)=O)C(OC(C)=O)C(/C=N\Nc1nc2ccccc2c(=O)[nH]1)OC(C)=O (stereo unspecified) | > 100 | > 100 | > 100 | > 100 | > 100 |
| COc1ccccc1NC(=S)NNC(=O)c1cc(-c2ccccc2)nc2ccccc12 | 98 | 4.53 | 26.1 | 51.9 |  |
| C=CC(C)(C)c1c(OC)oc2ccc(OC)c(C)c2c1=O | > 100 | > 100 | > 100 | > 100 | > 100 |

| Structure (SMILES) | TGI (NCI-H460 lung) [µM] | TGI (SR leukemia) [µM] | TGI (M14 melanoma) [µM] | TGI (NCI-H226 lung) [µM] | TGI (HL-60(TB) leukemia) [µM] |
| --- | --- | --- | --- | --- | --- |
| CC(=O)c1cc2sc3ccccc3c2[nH]1 | > 100 |  | > 100 |  |  |
| CC1(C)OP(=O)(c2ccccc2)C=C1Br (stereo unspecified) | > 100 | > 100 | > 100 | > 100 | > 100 |
| Cc1ccc(NC(=O)C23CC4CC(CC(C4)C2)C3)c(C(=O)NNC(=O)c2ccc(Cl)cc2)c1 | 69.2 | 30.1 | > 100 | 62.6 | 55.5 |
| Cn1c(=O)oc2cc(C(=O)CN3CCN(Cc4ccc5c(c4)OCO5)CC3)c(Cl)cc21 | > 100 | > 100 |  |  | > 100 |
| Cc1ccc(C2=NN=C3C(c4ccccc4)=Nc4ccccc4N3C2)cc1 | 18.6 | > 100 | 34.4 | > 100 | 9.64 |
| N=C(N)SCCSC(=N)N | > 100 |  | > 100 | > 100 |  |
| COc1ccc(/C=C2\N=C(N3CCOCC3)NC2=O)cc1 |  | > 100 | > 100 | > 100 | > 100 |
| O=C(O)[C@@]1(Cc2ccc(O)cc2)C[C@@H]2Cc3ccccc3N2N1 |  | > 100 | > 100 | > 100 | > 100 |
| Nc1ccc(-c2nnc(-c3c(Cl)c(Cl)c(Cl)c(Cl)c3-c3nc4ccc(C(=O)c5ccccc5)cc4[nH]3)o2)cc1 |  | 28.2 | 34.8 | 41.2 |  |
| CCc1nc2c(n1CC)C(=O)c1ccccc1C2=O | > 100 | > 100 | 54.9 | > 100 | > 100 |
| CC(C)(Cl)C(Br)CCC(=CCBr)CBr (mixture of isomers) | 13.6 |  | 4.25 | 51.9 | 2.42 |
| Cc1cc(N(C)C)ccc1N=Nc1ccc2ncccc2c1 | > 100 | > 100 | > 100 | > 100 | > 100 |
| CNC(=O)Nn1c(SC)nc2ccccc21 | > 100 | > 100 | > 100 | > 100 | > 100 |
| COc1cc(/C=C2\N=C(c3ccccc3)N(c3ccc4c(c3)Sc3cc(N5C(=O)/C(=C/c6cc(OC)c(OC)c(OC)c6)N=C5c5ccccc5)ccc3N4)C2=O)cc(OC)c1OC | > 100 |  | 80.8 |  | 65.3 |
| Cc1nn(C(=O)c2ccc(Cl)cc2)c2c1C(c1ccccc1)SC(N)=N2 (stereo unspecified) | > 10 | > 10 | > 10 | > 10 | > 10 |
| CCOC(=O)c1sc2c(c1OC(=O)c1ccc(Cl)cc1Cl)c(=O)n(-c1ccccc1)c(=S)n2-c1ccccc1 | > 55 |  | > 100 | > 33.6 | 30.9 |
| COc1cc(Br)cc2c1O[C@H]1C(=O)CC3CC21CCN3C (stereo partly specified) |  | > 100 | > 100 |  | 42.7 |
| COc1cc(C2SC(N)=Nc3c2c(C)nn3C(=O)Cc2ccccc2)cc(OC)c1OC (stereo unspecified) | > 100 | > 100 | > 100 | > 100 | > 100 |
| COc1ccc(NS(=O)(=O)c2ccc3ncn(NS(=O)(=O)c4ccc(I)cc4)c(=O)c3c2)cc1 | > 100 | > 100 | > 100 | > 100 | > 100 |
| Clc1ccc(-c2cn3c(nc4ccccc43)c(/C=C/c3cccs3)n2)cc1 | > 100 | > 100 | > 100 | > 100 | > 100 |
| N#Cc1nc(N)c(C#N)[nH]1 | > 100 | > 100 | > 100 | > 100 | > 100 |
